In patent US20180291335A1, “MODIFIED POLYNUCLEOTIDES FOR ALTERING CELL PHENOTYPE” (ModernaTX, Inc., priority 2012, published 2018):

Columns and labels:
[1] = tested on: human embryonic kidney 293 (HEK293) cells; assay: Cytotoxicity of NTPs, CYTO TOX-GLO assay; format: cell-based; conditions: human
Procedure: The cytotoxicity of natural and modified nucleoside triphosphates (NTPs) alone or in combination with other bases, was analyzed in human embryonic kidney 293 (HEK293) cells in the absence of transfection reagent. […] 10 ul of the NTPs outlined in Table 12 were combined with 10 ul of lipid dilution and incubated for 30 minutes to form a complex before 80 ul of the HEK293 cell suspension was added to the NTP complex.
Natural and modified NTPs were transfected at a concentration of 2.1 nM, 21 nM, 210 nM, 2.1 um, 21 uM, 210 um or 2.1 mM. NTPs in combination were transfected at a total concentration of NTPs of 8.4 nM, 84 nM, 840 nM, 8.4 uM, 84 uM, 840 uM and 8.4 mM. […] The cytotoxicity of the NTPs and the modified G-CSF mRNA was assayed at 4, 24, 48 and 72 hours post addition to the HEK293 cells using a CYTO TOX-GLO™ assay from Promega (Madison, Wis.) following the manufacturer protocol except pippeting was used for lysing the cells instead of shaking the plates.

[2] = tested on: peripheral blood mononuclear cells (PBMC); assay: In vitro screening in PBMC: G-CSF protein expression by ELISA; format: cell-based, human
Excerpt: (§1) The supernatant was harvested and stored frozen until analyzed by ELISA to determine the G-CSF protein expression, and the induction of the cytokines interferon-alpha (IFN-α) and tumor necrosis factor alpha (TNF-α).

interferon-alpha (IFN-α) = assay: In vitro screening in PBMC: interferon-alpha induction by ELISA; format: cell-based, human
Excerpt: as §1

[3] = tested on: tumor necrosis factor alpha (TNF-α); assay: In vitro screening in PBMC: tumor necrosis factor alpha induction by ELISA; format: cell-based, human
Excerpt: as §1

[4] = PBMC Donor 1, 500 ng G-CSF mRNA
[5] = PBMC Donor 2, 500 ng G-CSF mRNA
[6] = PBMC Donor 3, 500 ng G-CSF mRNA

Molecule: Cn1cc([C@@H]2O[C@H](CO)[C@@H](O)[C@H]2O)c(=O)[nH]c1=O [N1-methyl pseudouridine]
- percent of viable cells ([1]; 4 h, 2.1 nM): 91.89%
- percent of viable cells ([1]; 4 h, 21 nM): 91.44%
- percent of viable cells ([1]; 4 h, 210 nM): 92.15%
- percent of viable cells ([1]; 4 h, 2.1 uM): 90.41%
- percent of viable cells ([1]; 4 h, 21 uM): 91.48%
- percent of viable cells ([1]; 4 h, 210 uM): 91.43%
- percent of viable cells ([1]; 4 h, 2.1 mM): 92.45%
- percent of viable cells ([1]; 24 h, 2.1 nM): 87.79%
- percent of viable cells ([1]; 24 h, 21 nM): 86.85%
- percent of viable cells ([1]; 24 h, 210 nM): 85.89%
- percent of viable cells ([1]; 24 h, 2.1 uM): 85.72%
- percent of viable cells ([1]; 24 h, 21 uM): 85.17%
- percent of viable cells ([1]; 24 h, 210 uM): 86.48%
- percent of viable cells ([1]; 24 h, 2.1 mM): 88.92%
- percent of viable cells ([1]; 48 h, 2.1 nM): 87.81%
- percent of viable cells ([1]; 48 h, 21 nM): 86.72%
- percent of viable cells ([1]; 48 h, 210 nM): 87.38%
- percent of viable cells ([1]; 48 h, 2.1 uM): 85.85%
- percent of viable cells ([1]; 48 h, 21 uM): 87.52%
- percent of viable cells ([1]; 48 h, 210 uM): 86.02%
- percent of viable cells ([1]; 48 h, 2.1 mM): 89.84%
- percent of viable cells ([1]; 72 h, 2.1 nM): 92.98%
- percent of viable cells ([1]; 72 h, 21 nM): 92.84%
- percent of viable cells ([1]; 72 h, 210 nM): 92.40%
- percent of viable cells ([1]; 72 h, 2.1 uM): 92.25%
- percent of viable cells ([1]; 72 h, 21 uM): 93.83%
- percent of viable cells ([1]; 72 h, 210 uM): 93.03%
- percent of viable cells ([1]; 72 h, 2.1 mM): 96.80%

B1: mCherry: control mCherry mRNA (SEQ ID NO: 410, Cap1) fully modified with 5-methylcytosine and pseudouridine (nucleic acid)
chain: GGGAAAUAAGAGAGAAAAGAAGAGUAAGAAGAAAUAUAAGAGCCACCAUGGUAUCCAAGGGGGAGGAGGACAACAUGGCGAUCAUCAAGGAGUUCAUGCGAUUCAAGGUGCACAUGGAAGGUUCGGUCAACGGACACGAAUUUGAAAUCGAAGGAGAGGGUGAAGGAAGGCCCUAUGAAGGGACACAGACCGCGAAACUCAAGGUCACGAAAGGGGGACCACUUCCUUUCGCCUGGGACAUUCUUUCGCCCCAGUUUAUGUACGGGUCCAAAGCAUAUGUGAAGCAUCCCGCCGAUAUUCCUGACUAUCUGAAACUCAGCUUUCCCGAGGGAUUCAAGUGGGAGCGGGUCAUGAACUUUGAGGACGGGGGUGUAGUCACCGUAACCCAAGACUCAAGCCUCCAAGACGGCGAGUUCAUCUACAAGGUCAAACUGCGGGGGACUAACUUUCCGUCGGAUGGGCCGGUGAUGCAGAAGAAAACGAUGGGAUGGGAAGCGUCAUCGGAGAGGAUGUACCCAGAAGAUGGUGCAUUGAAGGGGGAGAUCAAGCAGAGACUGAAGUUGAAAGAUGGGGGACAUUAUGAUGCCGAGGUGAAAACGACAUACAAAGCGAAAAAGCCGGUGCAGCUUCCCGGAGCGUAUAAUGUGAAUAUCAAGUUGGAUAUUACUUCACACAAUGAGGACUACACAAUUGUCGAACAGUACGAACGCGCUGAGGGUAGACACUCGACGGGAGGCAUGGACGAGUUGUACAAAUGAUAAGCUGCCUUCUGCGGGGCUUGCCUUCUGGCCAUGCCCUUCUUCUCUCCCUUGCACCUGUACCUCUUGGUCUUUGAAUAAAGCCUGAGUAGGAAG
modifications: Cap1; 5mC/pseudoU modified; Description of Artificial Sequence: Synthetic Transcript Sequence
- G-CSF Protein Expression [2, 4]: 5 pg/mL
- G-CSF Protein Expression [2, 5]: 168 pg/mL
- G-CSF Protein Expression [2, 6]: 164 pg/mL
- IFN-α Expression (interferon-alpha (IFN-α); [4]): 100 pg/mL
- IFN-α Expression (interferon-alpha (IFN-α); [5]): 75 pg/mL
- IFN-α Expression (interferon-alpha (IFN-α); [6]): 143 pg/mL
- TNF-α Expression [3, 4]: 67 pg/mL
- TNF-α Expression [3, 5]: 100 pg/mL
- TNF-α Expression [3, 6]: 133 pg/mL

B2: α-thiocytidine: G-CSF mRNA (SEQ ID NO: 408) fully modified with α-thiocytidine (nucleic acid)
chain: GGGAAAUAAGAGAGAAAAGAAGAGUAAGAAGAAAUAUAAGAGCCACCAUGGCCGGUCCCGCGACCCAAAGCCCCAUGAAACUUAUGGCCCUGCAGUUGCUGCUUUGGCACUCGGCCCUCUGGACAGUCCAAGAAGCGACUCCUCUCGGACCUGCCUCAUCGUUGCCGCAGUCAUUCCUUUUGAAGUGUCUGGAGCAGGUGCGAAAGAUUCAGGGCGAUGGAGCCGCACUCCAAGAGAAGCUCUGCGCGACAUACAAACUUUGCCAUCCCGAGGAGCUCGUACUGCUCGGGCACAGCUUGGGGAUUCCCUGGGCUCCUCUCUCGUCCUGUCCGUCGCAGGCUUUGCAGUUGGCAGGGUGCCUUUCCCAGCUCCACUCCGGUUUGUUCUUGUAUCAGGGACUGCUGCAAGCCCUUGAGGGAAUCUCGCCAGAAUUGGGCCCGACGCUGGACACGUUGCAGCUCGACGUGGCGGAUUUCGCAACAACCAUCUGGCAGCAGAUGGAGGAACUGGGGAUGGCACCCGCGCUGCAGCCCACGCAGGGGGCAAUGCCGGCCUUUGCGUCCGCGUUUCAGCGCAGGGCGGGUGGAGUCCUCGUAGCGAGCCACCUUCAAUCAUUUUUGGAAGUCUCGUACCGGGUGCUGAGACAUCUUGCGCAGCCGUGAAGCGCUGCCUUCUGCGGGGCUUGCCUUCUGGCCAUGCCCUUCUUCUCUCCCUUGCACCUGUACCUCUUGGUCUUUGAAUAAAGCCUGAGUAGGAAG
modifications: α-thiocytidine modified; Description of Artificial Sequence: Synthetic Transcript Sequence
- G-CSF Protein Expression [2, 4]: 105 pg/mL
- G-CSF Protein Expression [2, 5]: 264 pg/mL
- G-CSF Protein Expression [2, 6]: 245 pg/mL
- IFN-α Expression (interferon-alpha (IFN-α); [4]): 1,138 pg/ml
- IFN-α Expression (interferon-alpha (IFN-α); [5]): 565 pg/mL
- IFN-α Expression (interferon-alpha (IFN-α); [6]): 695 pg/mL
- cytokine induction (interferon-alpha (IFN-α); PBMC, G-CSF mRNA, result in words): increase cytokine stimulation
- TNF-α Expression [3, 4]: 300 pg/mL
- TNF-α Expression [3, 5]: 273 pg/mL
- TNF-α Expression [3, 6]: 277 pg/mL
